The results in this text go back to patent US12162888B2, “Carboxamides as ubiquitin-specific protease inhibitors” (Valo Early Discovery, Inc., priority 2018, dated 2024).

The target of this experiment is T1, USP25 (USP25-His6, Boston Biochem E-546) (Homo sapiens, UniProt Q9UHP3).
T1 construct: His6 (C); purchased Boston Biochem E-546
T1 sequence (Q9UHP3 1-1055): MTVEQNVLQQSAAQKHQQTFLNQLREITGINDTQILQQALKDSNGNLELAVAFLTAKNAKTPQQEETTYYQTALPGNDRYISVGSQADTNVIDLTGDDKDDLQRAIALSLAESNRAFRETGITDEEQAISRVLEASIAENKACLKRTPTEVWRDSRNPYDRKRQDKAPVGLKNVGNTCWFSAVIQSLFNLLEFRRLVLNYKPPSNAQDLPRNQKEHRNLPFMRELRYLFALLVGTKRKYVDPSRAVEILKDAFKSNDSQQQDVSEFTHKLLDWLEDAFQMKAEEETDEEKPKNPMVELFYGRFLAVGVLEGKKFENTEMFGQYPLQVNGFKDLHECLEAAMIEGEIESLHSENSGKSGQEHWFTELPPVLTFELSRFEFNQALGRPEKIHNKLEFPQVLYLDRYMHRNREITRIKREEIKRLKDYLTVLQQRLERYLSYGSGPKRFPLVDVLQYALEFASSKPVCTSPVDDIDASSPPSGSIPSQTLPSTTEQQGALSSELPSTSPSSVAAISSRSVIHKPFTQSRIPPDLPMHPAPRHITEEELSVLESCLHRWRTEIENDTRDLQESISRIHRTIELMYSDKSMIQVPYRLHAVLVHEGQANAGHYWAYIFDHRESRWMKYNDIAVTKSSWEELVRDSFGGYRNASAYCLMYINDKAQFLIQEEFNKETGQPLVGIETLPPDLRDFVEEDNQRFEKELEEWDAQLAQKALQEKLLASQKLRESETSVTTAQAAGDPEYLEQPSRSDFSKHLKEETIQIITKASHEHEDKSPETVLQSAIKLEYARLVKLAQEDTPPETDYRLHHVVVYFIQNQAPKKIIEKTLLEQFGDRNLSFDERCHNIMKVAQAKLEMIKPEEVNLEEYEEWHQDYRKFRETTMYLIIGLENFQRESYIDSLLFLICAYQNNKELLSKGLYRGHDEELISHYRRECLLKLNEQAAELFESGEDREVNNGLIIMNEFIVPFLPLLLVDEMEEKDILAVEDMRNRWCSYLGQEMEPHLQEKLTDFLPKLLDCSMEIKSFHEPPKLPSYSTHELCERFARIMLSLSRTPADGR
Briefly: Ubiquitin-Rhodamine 110 Assay for USP25 Activity, Example A-3. It is filed as biochemical. The settings on record: Ubiquitin-Rhodamine 110 assay, Example A-3. As for the experimental part:
Example A-3: Biochemical Assay: Ubiquitin-Rhodamine 110 Assay for USP25 Activity
The assay was performed in a final volume of 9 μL in assay buffer containing 20 mM Tris-HCl (pH 8.0, (1M Tris-HCl, pH 8.0 solution; Corning 46-031-CM)), 3 mM BME (2-Mercaptoethanol; Sigma 63689-25ML-F), 0.03% BGG (0.22 μM filtered, Sigma, G7516-25G), and 0.01% Triton X-100 (Sigma, T9284-10L). Nanoliter quantities of 10-point, 3-fold serial dilution in DMSO was pre-dispensed into 1536 assay plates (Corning, #3724BC) for a final test concentration of 25 μM to 1.3 nM, top to lowest dose, respectively. Enzyme USP25, construct USP25-His6, (Boston Biochem E-546). Concentration and incubation times were optimized for the maximal signal-to-background while maintaining initial velocity conditions at a fixed substrate concentration. The final concentration of the enzyme in the assay was […]. Final substrate (Ub-Rh110; Ubiquitin-Rhodamine 110, R&D Systems #U-555) concentration was 25 nM with [Ub-Rh110]<<Km. 3 μL of 2× enzyme was added to assay plates (pre-stamped with compound) preincubated with […] for 30 minutes and then 3 μL of 2× Ub-Rh110 was added to assay plates. Plates were incubated for 45 minutes at room temperature before addition of 3 μL of stop solution (final concentration of 10 mM citric acid (Sigma, 251275-500G)). Fluorescence was read on the Envision (Excitation at 485 nm and Emission at 535 nm; Perkin Elmer) or on the PheraSTAR (Excitation at 485 nm and Emission at 535 nm; BMG Labtech).
For assay formats Example A-1(a), A-1(b), and A-2, data were reported as percent inhibition compared with control wells based on the following equation: % inh=1−((FLU−AveLow)/(AveHigh−AveLow)) where FLU=measured Fluorescence, AveLow=average Fluorescence of no enzyme control (n=16), and AveHighh=average Fluorescence of DMSO control (n=16). IC50 values were determined by curve fitting of the standard 4 parameter logistic fitting algorithm included in the Activity Base software package: IDBS XE Designer Model 205. Data is fitted using the Levenburg Marquardt algorithm.

Like-named read-outs stand apart in the source and are kept apart here.

`Cc1ccc2c(N)c(C(=O)N[C@H]3CCc4nc(N5C[C@H]6COC[C@@H](C5)[C@@H]6N)ccc4C3)sc2n1` [Example 397]: the IC50 (read-out: USP25 A-3 IC50 range) lay in the range of 200 to 2000 nM.

On to `Cc1ccc2c(N)c(C(=O)N[C@H]3CCc4nc(N5C[C@@H](N)[C@@]6(CCOC6)C5)ccc4C3)sc2n1` (single isomer, unassigned) [Example 431], for which the IC50 (read-out: USP25 A-3 IC50 range) was above 2000 nM.

As for `CO[C@@]12CCN[C@H]1CN(c1ccc3c(n1)CC[C@H](NC(=O)c1sc4nc(C)ccc4c1N)C3)C2` [Example 434, N-[(6S)-2-[(3aR,6aS)-3a-methoxy-octahydropyrrolo[2,3-c]pyrrol-5-yl]-5,6,7,8-tetrahydroquinolin-6-yl]-3-amino-6-methylthieno[2,3-b]pyridine-2-carboxamide], the IC50 (read-out: USP25 A-3 IC50 range) was above 2000 nM.

Consider `Cc1ccc2c(N)c(C(=O)N[C@H]3COc4cc(N5CCNCC5)cc(F)c4C3)oc2n1` [Example 169, 3-amino-N-[(3R)-5-fluoro-7-(piperazin-1-yl)-3,4-dihydro-2H-1-benzopyran-3-yl]-6-methylfuro[2,3-b]pyridine-2-carboxamide], for which, where the note is “biochemical IC50 range, read-out: USP25 A-3”, the IC50 is above 2000 nM.

Consider `COC[C@@]1(N)CCN(c2ccc3c(n2)CC[C@H](NC(=O)c2sc4nc(C)ccc4c2N)C3)C1` [Example 388, 3-amino-N-[(6S)-2-[(3R)-3-amino-3-(methoxymethyl)pyrrolidin-1-yl]-5,6,7,8-tetrahydroquinolin-6-yl]-6-methylthieno[2,3-b]pyridine-2-carboxamide], for which the IC50 (read-out: USP25 A-3 IC50 range) was 200 to 2000 nM.

As for `Cc1ccc2c(N)c(C(=O)N[C@H]3CCc4nc(N5CCN[C@@H](C(F)F)C5)ccc4C3)sc2n1` [Example 375, 3-amino-N-[(6S)-2-[(3R)-3-(difluoromethyl)piperazin-1-yl]-5,6,7,8-tetrahydroquinolin-6-yl]-6-methylthieno[2,3-b]pyridine-2-carboxamide], the IC50 (read-out: USP25 A-3 IC50 range) was above 2000 nM.

With `Cc1ccc2c(N)c(C(=O)N[C@H]3CCc4nc(N5C[C@@H](N)[C@H](C(F)F)C5)ncc4C3)sc2n1` [Example 381, 3-amino-N-[(6S)-2-[(3S,4R)-3-amino-4-(difluoromethyl)pyrrolidin-1-yl]-5,6,7,8-tetrahydroquinazolin-6-yl]-6-methylthieno[2,3-b]pyridine-2-carboxamide], the IC50 (read-out: USP25 A-3 IC50 range) was above 2000 nM.

Consider `Cc1ccc2c(N)c(C(=O)N[C@H]3CCc4nc(N5CC[C@]6(C5)OCC[C@@H]6N)ccc4C3)sc2n1` [Example 406, 3-amino-N-[(6S)-2-[(4S,5R)-4-amino-1-oxa-7-azaspiro[4.4]nonan-7-yl]-5,6,7,8-tetrahydroquinolin-6-yl]-6-methylthieno[2,3-b]pyridine-2-carboxamide], for which the IC50 (read-out: USP25 A-3 IC50 range) was above 2000 nM.

In the case of `Cc1ccc2c(N)c(C(=O)N[C@H]3CCc4nc(N5C[C@H](N)[C@]6(CCOC6)C5)ccc4C3)sc2n1` [Example 430, 3-amino-N-[(6S)-2-[(5S,9R)-9-amino-2-oxa-7-azaspiro[4.4]nonan-7-yl]-5,6,7,8-tetrahydroquinolin-6-yl]-6-methylthieno[2,3-b]pyridine-2-carboxamide], the IC50 (read-out: USP25 A-3 IC50 range) was above 2000 nM.

As for `Cc1ccc2c(N)c(C(=O)N[C@H]3CCc4nc(N5CC6(C[C@@H](N)CO6)C5)ccc4C3)sc2n1` [Example 398, 3-amino-N-[(6S)-2-[(7R)-7-amino-5-oxa-2-azaspiro[3.4]octan-2-yl]-5,6,7,8-tetrahydroquinolin-6-yl]-6-methylthieno[2,3-b]pyridine-2-carboxamide], the IC50 (read-out: USP25 A-3 IC50 range) fell in the range of 200 to 2000 nM.

With `Cc1ccc2c(N)c(C(=O)N[C@H]3CCc4nc(N5C6CC(N)CC5CS(=O)(=O)C6)ccc4C3)sc2n1` (stereo partly drawn) [Example 429, 3-amino-N-[(6S)-2-{7-amino-3,3-dioxo-3λ-thia-9-azabicyclo[3.3.1]nonan-9-yl}-5,6,7,8-tetrahydroquinolin-6-yl]-6-methylthieno[2,3-b]pyridine-2-carboxamide], the IC50 (read-out: USP25 A-3 IC50 range) lay in the range of 50 to 200 nM.

For `Cc1ccc2c(N)c(C(=O)N[C@H]3CCc4nc(N5C[C@H](C(F)F)[C@@H](N)C5)ncc4C3)sc2n1` [Example 380, 3-amino-N-[(6S)-2-[(3R,4S)-3-amino-4-(difluoromethyl)pyrrolidin-1-yl]-5,6,7,8-tetrahydroquinazolin-6-yl]-6-methylthieno[2,3-b]pyridine-2-carboxamide], the IC50 (read-out: USP25 A-3 IC50 range) is above 2000 nM.

With `Cc1ccc2c(N)c(C(=O)N[C@@H]3COc4cc(N5C[C@@H]6CNC[C@H]6C5)ccc4C3)sc2n1` [Example 42, 3-amino-N-((S)-7-((3aS,6aS)-hexahydropyrrolo[3,4-c]pyrrol-2(1H)-yl)chroman-3-yl)-6-methylthieno[2,3-b]pyridine-2-carboxamide], the IC50 (read-out: USP25 A-3 IC50 range) is 200 to 2000 nM.

With `Cc1ccc2c(N)c(C(=O)N[C@H]3CCc4nc(N5C[C@H]6COC[C@@H](C5)[C@H]6N)ccc4C3)sc2n1` [Example 396], the IC50 (read-out: USP25 A-3 IC50 range) lay in the range of 200 to 2000 nM.

In the case of `Cc1cnc2c(N)c(C(=O)N[C@H]3CCc4cc(N5CC(C(=O)O)C5)ccc4C3)sc2n1` [Example 6-4, (S)-1-(6-(7-amino-3-methylthieno[2,3-b]pyrazine-6-carboxamido)-5,6,7,8-tetrahydronaphthalen-2-yl)azetidine-3-carboxylic acid], for the setting “read-out: USP25 A-3 IC50 range”, the IC50 fell in the range of 200 to 2000 nM.

Regarding `CCn1ccc2cc(C(=O)N[C@H]3CCc4nc(N5C[C@H](C(F)F)[C@@H](N)C5)ccc4C3)cnc21` [Example 370, N-[(6S)-2-[(3R,4S)-3-amino-4-(difluoromethyl)pyrrolidin-1-yl]-5,6,7,8-tetrahydroquinolin-6-yl]-1-ethyl-1H-pyrrolo[2,3-b]pyridine-5-carboxamide], for the setting “read-out: USP25 A-3 IC50 range”, the IC50 fell in the range of 200 to 2000 nM.

For the compound `CCn1ccc2cc(C(=O)N[C@H]3CCc4nc(N5C[C@@H](N)[C@H](C(F)F)C5)ccc4C3)cnc21` [Example 371, N-[(6S)-2-[(3S,4R)-3-amino-4-(difluoromethyl)pyrrolidin-1-yl]-5,6,7,8-tetrahydroquinolin-6-yl]-1-ethyl-1H-pyrrolo[2,3-b]pyridine-5-carboxamide], the IC50 (read-out: USP25 A-3 IC50 range) is above 2000 nM.

Regarding `CO[C@]1(C)CN(c2ccc3c(n2)CC[C@H](NC(=O)c2sc4nc(C)ccc4c2N)C3)C[C@@H]1N` [Example 427, 3-amino-N-[(6S)-2-[(3R,4S)-4-amino-3-methoxy-3-methylpyrrolidin-1-yl]-5,6,7,8-tetrahydroquinolin-6-yl]-6-methylthieno[2,3-b]pyridine-2-carboxamide], the IC50 (read-out: USP25 A-3 IC50 range) is 200 to 2000 nM.

Regarding `CN[C@H]1CN(c2ccc3c(n2)CC[C@H](NC(=O)c2sc4nc(C)ccc4c2N)C3)C[C@@H]1C(F)F` [Example 376, 3-amino-N-[(6S)-2-[(3S,4R)-3-(difluoromethyl)-4-(methylamino)pyrrolidin-1-yl]-5,6,7,8-tetrahydroquinolin-6-yl]-6-methylthieno[2,3-b]pyridine-2-carboxamide], the IC50 (read-out: USP25 A-3 IC50 range) was above 2000 nM.
